From US11224223B2, “Feeding deterrence of pests such as Hemiptera, Lepidoptera and Coleoptera” (BEDOUKIAN RESEARCH, INC., priority 2012, dated 2022)

Legend:
Format in all cases: in vivo
granary weevils = assay: Granary weevil test on treated wheat kernels; details: 5% in isopropyl alcohol, 3 week period
Experimental: Ten replicates of 30 kernels of wheat were immersed into the test compound and allowed to dry for 24 hours. The grains were then transferred to a test container, and 10 granary weevils were released. Test containers were secured and left for a 3 week period. At the end of this time, the wheat grains were examined for developing larvae and damage by larvae. […] Ten additional replicates treated with isopropyl alcohol were prepared to serve as controls.

saw tooth grain beetles = assay: Repellency of test compounds on grain beetles, treated corn kernels; details: 5% in isopropyl alcohol, 3 week period
Experimental: Ten replicates of 30 kernels of corn are immersed into the test compound and allowed to dry for 24 hours. The kernels are then transferred to a test container, and 10 saw tooth grain beetles are released. Test containers are secured and left for a 3 week period. At the end of this time, the […] grains are examined for feeding damage. […] Ten additional replicates treated with isopropyl alcohol are prepared to serve as controls.

Plodia interpunctella = assay: Feeding repellent assay for Indian meal moth larva on treated rice; details: 10% compound in a 5% Ethanol:95% water solution, third instar larvae, 1 week
Experimental: (§1) Feeding Repellent Assay for Indian Meal Moth Larva One gram of rice is weighed and treated with 2% by weight of each test chemical or ethanol as a control for each treatment and replicate. The grains are allowed to dry and then weighed again. Treated or control rice grains are placed in a petri dish. Third instar larvae are starved for 8 h and gently introduced into the center of each compartment. 20 larva are screened per treatment, and each experiment is repeated three times. The weight of rice grains is measured again after 1 week. The selective antifeeding rate (%) formula is [(C−T)/(C+T)]×100, and the non-selective antifeeding rate (%) formula is [(C−T)/C)]×100, where C and T are the areas consumed by the control and treated leaf disks, respectively.

Sitostroga cerealella = assay: Feeding repellent assay for Angoumois larva on treated rice; details: 10% compound in a 5% Ethanol:95% water solution, third instar larvae, 1 week
Experimental: Feeding Repellent Assay for Angoumois Larva
as §1, with “One” for “Feeding Repellent Assay for Indian Meal Moth Larva One”

[1] = system: brown marmorated stink bugs (BMSB); assay: Repellency as feeding deterrence in brown marmorated stink bugs, treated filter paper with green bean; details: compound at 3.5% in a 57% Ethanol:43% water solution; control 38%
Experimental: A test was designed to measure the repellency as feeding deterrence in brown marmorated stink bugs (BMSB). Five replicates of 5 BMSBs were introduced into test arenas, containing one 60 mm×15 mm Petri dish with treated filter papers in which a food source (green bean) was attached, at the start of the test. The small Petri dishes containing the treated filter paper and food source were covered with a fitted Petri dish lid in between observation times, and were removed 5 minutes before each observation time to prevent stink bugs from feeding until sated. The distribution of the BMSBs was observed and documented hourly for 5 hours.

SMILES	Increased Repellency vs. Control Repellency (granary weevils) [%]	Increased Repellency vs. Control Repellency (saw tooth grain beetles) [%]	% Antifeedent Activity (Plodia interpunctella) [%]	% Antifeedent Activity (Sitostroga cerealella) [%]	Repellency averaged over 5 hours [1] [%]
CC/C(C)=C/CC/C(C)=C/CC1CCCC1=O (stereo not drawn) [Methyl Apritone]	11	10	70	70	
CCCCCC1C(=O)CCC1CC(=O)OCCC (stereo not drawn) [Propyl Dihydrojasmonate]	8	10	60	60	100
